Measured values taken from US20030211942A1, “Aryl sulfonyl amino carbonyl triazole based selective herbicides” (priority 2000, published 2003).
“And” between values parts separate entries of the source, which are not always exact repeats. Equal entries are not always repeated.

What was measured:
Experiment in all cases: Post-emergence/greenhouse herbicidal test
Format in all cases: in vivo
Amaranthus retroflexus = conditions: post-emergence, about 3 weeks
Source text: (§1) Procarbazone- and flucarbazone-sodium were used as 70 WG formulation. Fenoxaprop-P-ethyl was used in a mixture with mefenpyr-diethyl (75 g of mefenpyr-diethyl/l) as Ralon® Super 69 EW. Cinidon-ethyl and florasulam and iodosufuron in a mixture with mefenpyr-diethyl were used in the form of the finished formulations Lotus® 200 EC, Primus® 50 SC and Hussar® 5 WG (15% mefenpyr-diethyl), respectively. Amicarbazone was used as 70 WG formulation.
(§2) In pre- and post-emergence experiments, the spray liquor is usually admixed with a surfactant (Renex 36), at a concentration of 0.1%.
(§3) Test plants are grown under controlled conditions (temperature and light).
(§4) Following the spray application, the plant containers are kept in a greenhouse under constant light and temperature conditions.
(§5) After about 3 weeks, the degree of damage to the plants is rated in % damage in comparison to the development of the untreated control.
(§6) 0% =no damage (like untreated control)
(§7) 100% =total destruction/damage

Alopecurus myosuroides = conditions: post-emergence, about 3 weeks
Source text: as §1, §2, §3, §4, §5, §6, §7

Matricaria inodora = test system: Matricaria inodora
Source text: as §1, §2, §3, §4, §5, §6, §7

Viola arvensis = conditions: post-emergence, about 3 weeks
Source text: as §1, §2, §3, §4, §5, §6, §7

Galium aparine = conditions: post-emergence, about 3 weeks
Source text: as §1, §2, §3, §4, §5, §6, §7

Veronica persicaria = conditions: post-emergence, about 3 weeks
Source text: as §1, §2, §3, §4, §5, §6, §7

Xanthium strumarium = conditions: post-emergence, about 3 weeks
Source text: as §1, §2, §3, §4, §5, §6, §7

Bromus secalinus = conditions: post-emergence, about 3 weeks
Source text: as §1, §2, §3, §4, §5, §6, §7

Echinochloa crus-galli = test system: Echinochloa crus-galli
Source text: as §1, §2, §3, §4, §5, §6, §7

Avena fatua = test system: Avena fatua
Source text: as §1, §2, §3, §4, §5, §6, §7

Polygonum convolvolus = conditions: post-emergence, about 3 weeks
Source text: as §1, §2, §3, §4, §5, §6, §7

Abutilon theophrasti = conditions: post-emergence, about 3 weeks
Source text: as §1, §2, §3, §4, §5, §6, §7

Cassia tora = test system: Cassia tora
Source text: as §1, §2, §3, §4, §5, §6, §7

Lolium perenne = conditions: post-emergence, about 3 weeks
Source text: as §1, §2, §3, §4, §5, §6, §7

Digitaria sanguinalis = conditions: post-emergence, about 3 weeks
Source text: as §1, §2, §3, §4, §5, §6, §7

Stellaria media = conditions: post-emergence, about 3 weeks
Source text: as §1, §2, §3, §4, §5, §6, §7

Datura strumarium = conditions: post-emergence, about 3 weeks
Source text: as §1, §2, §3, §4, §5, §6, §7

Chenopodium album = conditions: post-emergence, about 3 weeks
Source text: as §1, §2, §3, §4, §5, §6, §7

Eriochloa villosa = conditions: 60 g of ai/ha, post-emergence, about 3 weeks
Source text: as §1, §2, §3, §4, §5, §6, §7

[1] = 2 g of ai/ha, post-emergence, about 3 weeks
[2] = 4 g of ai/ha, post-emergence, about 3 weeks
[3] = 8 g of ai/ha, post-emergence, about 3 weeks
[4] = 15 g of ai/ha, post-emergence, about 3 weeks
[5] = 60 g of ai/ha, post-emergence, about 3 weeks
[6] = 30 g of ai/ha, post-emergence, about 3 weeks

COc1ncc(F)c2nc(S(=O)(=O)Nc3c(F)cccc3F)nn12 [Florasulam, N-(2,6-difluoro-phenyl)-8-fluoro-5-methoxy-[1,2,4]-triazolo-[1,5-c]-pyrimidine-2-sulphonamide]
Amaranthus retroflexus observed (Amaranthus retroflexus; 2 g of ai/ha): 70%
Amaranthus retroflexus observed (Amaranthus retroflexus; 4 g of ai/ha): 70%
Alopecurus myosuroides observed (Alopecurus myosuroides; 2 g of ai/ha): 0%
Alopecurus myosuroides observed (Alopecurus myosuroides; 4 g of ai/ha): 0%
Matricaria inodora observed (Matricaria inodora; [1]): 70%
Viola arvensis observed (Viola arvensis; 2 g of ai/ha): 0%
Viola arvensis observed (Viola arvensis; 4 g of ai/ha): 0%
Viola arvensis observed (Viola arvensis; 8 g of ai/ha): 70%
Galium aparine observed (Galium aparine; 2 g of ai/ha): 50%
Galium aparine observed (Galium aparine; 4 g of ai/ha): 50%
Veronica persicaria observed (Veronica persicaria; 2 g of ai/ha): 0%
Veronica persicaria observed (Veronica persicaria; 4 g of ai/ha): 0%
Xanthium strumarium observed (Xanthium strumarium; 2 g of ai/ha): 40%
Xanthium strumarium observed (Xanthium strumarium; 4 g of ai/ha): 50%
Bromus secalinus observed (Bromus secalinus; 2 g of ai/ha): 0%
Bromus secalinus observed (Bromus secalinus; 4 g of ai/ha): 0%
Echinochloa crus-galli observed (Echinochloa crus-galli; [1]): 10%
Echinochloa crus-galli observed (Echinochloa crus-galli; [2]): 40%
Avena fatua observed (Avena fatua; [1]): 0%
Avena fatua observed (Avena fatua; [2]): 10%
Avena fatua observed (Avena fatua; [3]): 30%
Avena fatua observed (Avena fatua; [4]): 50%
Polygonum convolvolus observed (Polygonum convolvolus; 8 g of ai/ha): 95%
Polygonum convolvolus observed (Polygonum convolvolus; 15 g of ai/ha): 95%
Abutilon theophrasti observed (Abutilon theophrasti; 2 g of ai/ha): 20%
Abutilon theophrasti observed (Abutilon theophrasti; 4 g of ai/ha): 30%
Cassia tora observed (Cassia tora; [3]): 90%
Cassia tora observed (Cassia tora; [4]): 95%
Lolium perenne observed (Lolium perenne; 2 g of ai/ha): 0%
Lolium perenne observed (Lolium perenne; 4 g of ai/ha): 0%
Lolium perenne observed (Lolium perenne; 8 g of ai/ha): 20%
Lolium perenne observed (Lolium perenne; 15 g of ai/ha): 30%
Digitaria sanguinalis observed (Digitaria sanguinalis; 2 g of ai/ha): 0%
Digitaria sanguinalis observed (Digitaria sanguinalis; 4 g of ai/ha): 0%

COc1nn(C(=O)NS(=O)(=O)c2ccccc2OC(F)(F)F)c(=O)n1C [Flucarbazone-sodium, 2-(2-trifluoromethoxy-phenylsulphonylaminocarbonyl)-4-methyl-5-methoxy-2,4-dihydro-3H-1,2,4-triazol-3-one]
Amaranthus retroflexus observed (Amaranthus retroflexus; 15 g of ai/ha): 90%
Amaranthus retroflexus observed (Amaranthus retroflexus; 30 g of ai/ha): 90%
Amaranthus retroflexus observed (Amaranthus retroflexus; 60 g of ai/ha): 90%
Stellaria media observed (Stellaria media; 15 g of ai/ha): 0%
Stellaria media observed (Stellaria media; 30 g of ai/ha): 60%
Stellaria media observed (Stellaria media; 60 g of ai/ha): 95%
Datura strumarium observed (Datura strumarium; 15 g of ai/ha): 70%
Datura strumarium observed (Datura strumarium; 60 g of ai/ha): 80%
Alopecurus myosuroides observed (Alopecurus myosuroides; 15 g of ai/ha): 70%
Alopecurus myosuroides observed (Alopecurus myosuroides; 30 g of ai/ha): 70%
Alopecurus myosuroides observed (Alopecurus myosuroides; 60 g of ai/ha): 70%
Matricaria inodora observed (Matricaria inodora; [5]): 20%
Matricaria inodora observed (Matricaria inodora; application rate 15 g ai/ha): 20
Matricaria inodora observed (Matricaria inodora; application rate 30 g ai/ha): 60
Matricaria inodora observed (Matricaria inodora; application rate 60 g ai/ha): 60
Viola arvensis observed (Viola arvensis; 15 g of ai/ha): 60% and 50% and 80%
Viola arvensis observed (Viola arvensis; 30 g of ai/ha): 50%
Viola arvensis observed (Viola arvensis; 60 g of ai/ha): 50%
Galium aparine observed (Galium aparine; 15 g of ai/ha): 0%
Galium aparine observed (Galium aparine; 30 g of ai/ha): 0%
Galium aparine observed (Galium aparine; 60 g of ai/ha): 0%
Veronica persicaria observed (Veronica persicaria; 60 g of ai/ha): 0%
Xanthium strumarium observed (Xanthium strumarium; 15 g of ai/ha): 20%
Xanthium strumarium observed (Xanthium strumarium; 30 g of ai/ha): 40%
Xanthium strumarium observed (Xanthium strumarium; 60 g of ai/ha): 60%
Bromus secalinus observed (Bromus secalinus; 15 g of ai/ha): 70%
Bromus secalinus observed (Bromus secalinus; 30 g of ai/ha): 70% and 90%
Bromus secalinus observed (Bromus secalinus; 60 g of ai/ha): 80% and 90%
Echinochloa crus-galli observed (Echinochloa crus-galli; [4]): 50%
Echinochloa crus-galli observed (Echinochloa crus-galli; [5]): 90%
Echinochloa crus-galli observed (Echinochloa crus-galli; application rate 15 g ai/ha): 60
Echinochloa crus-galli observed (Echinochloa crus-galli; application rate 30 g ai/ha): 70
Echinochloa crus-galli observed (Echinochloa crus-galli; application rate 60 g ai/ha): 90
Avena fatua observed (Avena fatua; [4]): 80%
Avena fatua observed (Avena fatua; [6]): 90%
Avena fatua observed (Avena fatua; [5]): 90%
Avena fatua observed (Avena fatua; Table B-62, application rate 15 g ai/ha): 80
Avena fatua observed (Avena fatua; application rate 15 g ai/ha): 70
Avena fatua observed (Avena fatua; application rate 30 g ai/ha): 70
Avena fatua observed (Avena fatua; application rate 60 g ai/ha): 70
Polygonum convolvolus observed (Polygonum convolvolus; 15 g of ai/ha): 60%
Polygonum convolvolus observed (Polygonum convolvolus; 30 g of ai/ha): 70%
Polygonum convolvolus observed (Polygonum convolvolus; 60 g of ai/ha): 70%
Abutilon theophrasti observed (Abutilon theophrasti; 15 g of ai/ha): 0%
Abutilon theophrasti observed (Abutilon theophrasti; 30 g of ai/ha): 0%
Abutilon theophrasti observed (Abutilon theophrasti; 60 g of ai/ha): 0%
Chenopodium album observed (Chenopodium album; 15 g of ai/ha): 50%
Chenopodium album observed (Chenopodium album; 30 g of ai/ha): 50%
Chenopodium album observed (Chenopodium album; 60 g of ai/ha): 70%
Cassia tora observed (Cassia tora; [4]): 50%
Cassia tora observed (Cassia tora; [6]): 50%
Cassia tora observed (Cassia tora; [5]): 50%
Cassia tora observed (Cassia tora; application rate 15 g ai/ha): 0
Lolium perenne observed (Lolium perenne; 15 g of ai/ha): 80%
Lolium perenne observed (Lolium perenne; 30 g of ai/ha): 90%
Lolium perenne observed (Lolium perenne; 60 g of ai/ha): 90%
Eriochloa villosa observed (Eriochloa villosa): 70%
Digitaria sanguinalis observed (Digitaria sanguinalis; 30 g of ai/ha): 20%
Digitaria sanguinalis observed (Digitaria sanguinalis; 60 g of ai/ha): 20%
